In one test the target is T1, STAT5A (Homo sapiens, UniProt P42229).
T1 sequence (P42229 1-794): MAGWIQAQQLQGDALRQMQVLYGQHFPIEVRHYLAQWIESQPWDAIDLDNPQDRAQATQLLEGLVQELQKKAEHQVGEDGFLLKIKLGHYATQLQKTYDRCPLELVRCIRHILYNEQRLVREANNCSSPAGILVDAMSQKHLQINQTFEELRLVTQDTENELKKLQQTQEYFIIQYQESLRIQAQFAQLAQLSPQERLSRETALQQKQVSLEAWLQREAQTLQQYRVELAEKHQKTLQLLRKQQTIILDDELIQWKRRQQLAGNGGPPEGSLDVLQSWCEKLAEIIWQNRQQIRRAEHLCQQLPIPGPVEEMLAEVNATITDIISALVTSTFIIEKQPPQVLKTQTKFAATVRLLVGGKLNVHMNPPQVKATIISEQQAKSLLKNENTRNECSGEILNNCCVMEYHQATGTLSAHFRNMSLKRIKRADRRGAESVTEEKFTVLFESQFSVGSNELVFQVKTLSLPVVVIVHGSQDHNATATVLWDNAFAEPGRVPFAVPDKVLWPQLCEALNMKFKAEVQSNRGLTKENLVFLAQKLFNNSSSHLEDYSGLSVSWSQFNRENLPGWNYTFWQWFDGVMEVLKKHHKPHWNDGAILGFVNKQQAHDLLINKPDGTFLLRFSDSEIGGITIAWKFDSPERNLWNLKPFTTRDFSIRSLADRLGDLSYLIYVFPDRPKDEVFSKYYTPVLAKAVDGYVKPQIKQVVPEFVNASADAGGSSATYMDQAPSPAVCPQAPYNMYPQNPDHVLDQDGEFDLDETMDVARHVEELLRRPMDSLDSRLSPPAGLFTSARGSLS
Description: Fluorescence polarization (FP) binding assay, STAT5A. The conditions noted are these: FP competition, 5 nM fluorescein-labeled tracer, 200 nM protein, PBS pH7.4. The essentials:
(§1)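 Fluorescence polarization is read after STAT5 or STAT6 protein (200 nM) and a fluorescein-labeled tracer (5 nM) equilibrate for 1 h at room temperature in DTT-containing PBS pH 7.4 with BGG and Tween-20. Inhibition constants are obtained by nonlinear curve fitting.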

A further test deals with T2, STAT6 protein (Homo sapiens, UniProt P42226).
T2 sequence (P42226 1-847): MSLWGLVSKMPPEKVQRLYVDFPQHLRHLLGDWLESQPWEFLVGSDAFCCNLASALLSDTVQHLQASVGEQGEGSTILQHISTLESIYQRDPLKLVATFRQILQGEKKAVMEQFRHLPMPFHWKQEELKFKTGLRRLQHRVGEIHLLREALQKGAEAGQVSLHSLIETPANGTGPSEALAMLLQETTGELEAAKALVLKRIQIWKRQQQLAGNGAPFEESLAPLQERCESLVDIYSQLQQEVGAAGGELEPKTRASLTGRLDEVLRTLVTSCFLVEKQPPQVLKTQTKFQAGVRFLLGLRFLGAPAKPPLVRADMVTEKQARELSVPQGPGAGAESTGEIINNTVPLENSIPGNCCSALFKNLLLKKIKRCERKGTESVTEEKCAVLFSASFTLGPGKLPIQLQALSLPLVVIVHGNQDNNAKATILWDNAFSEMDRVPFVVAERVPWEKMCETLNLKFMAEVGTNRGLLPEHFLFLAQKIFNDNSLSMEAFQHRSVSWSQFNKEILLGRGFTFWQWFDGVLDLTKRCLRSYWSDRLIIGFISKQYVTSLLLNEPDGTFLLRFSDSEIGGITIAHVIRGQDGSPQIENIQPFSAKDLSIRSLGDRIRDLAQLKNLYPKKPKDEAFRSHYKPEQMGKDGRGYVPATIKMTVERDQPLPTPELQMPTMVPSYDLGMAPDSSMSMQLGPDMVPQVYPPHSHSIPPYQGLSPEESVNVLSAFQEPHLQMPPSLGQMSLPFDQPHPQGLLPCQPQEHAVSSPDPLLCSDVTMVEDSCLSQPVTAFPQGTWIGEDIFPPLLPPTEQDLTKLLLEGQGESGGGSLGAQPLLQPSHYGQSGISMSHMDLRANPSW
Description: Fluorescence polarization (FP) binding assay, STAT6. The following applies: FP competition, 5 nM fluorescein-labeled tracer, 200 nM protein, PBS pH7.4; read-out: Binding STAT6. Summed up: as §1
A general note: Polarisation of emitted light reports the rotation of a fluorescent probe.

With `CC(C)(C)[C@H](NC(=O)c1cc2cc(C(F)(F)P(=O)(O)O)ccc2s1)C(=O)N1Cc2ccccc2CC1C(=O)N1CC[C@H](c2ccccc2)C1` (stereo partly drawn) [Compound 191, ((2-(((2S)-3,3-dimethyl-1-oxo-1-(3-((R)-3-phenylpyrrolidine-1-carbonyl)-3,4-dihydroisoquinolin-2(1H)-yl)butan-2-yl)carbamoyl)benzo[b]thiophen-5-yl)difluoromethyl)phosphonic acid], the Ki was greater than 10 µM on STAT5A and 1 to 10 µM on STAT6 protein.
Taken in the same sequence, the figures for `CC(C)(C)[C@H](NC(=O)c1cc2cc(C(F)(F)P(=O)(O)O)ccc2s1)C(=O)N1Cc2ccccc2CC1C(=O)N1CC[C@@H](c2ccccc2)C1` (stereo partly drawn) [Compound 192, ((2-(((2S)-3,3-dimethyl-1-oxo-1-(3-((S)-3-phenylpyrrolidine-1-carbonyl)-3,4-dihydroisoquinolin-2(1H)-yl)butan-2-yl)carbamoyl)benzo[b]thiophen-5-yl)difluoromethyl)phosphonic acid] were greater than 10 µM and greater than 10 µM.
As to `CC(C)(C)[C@H](NC(=O)c1cc2cc(C(F)(F)P(=O)(O)O)ccc2s1)C(=O)N1Cc2ccccc2CC1C(=O)N1Cc2ccccc2C1` (stereo partly drawn) [Compound 193, (difluoro(2-(((2S)-1-(3-(isoindoline-2-carbonyl)-3,4-dihydroisoquinolin-2(1H)-yl)-3,3-dimethyl-1-oxobutan-2-yl)carbamoyl)benzo[b]thiophen-5-yl)methyl)phosphonic acid], the Ki at STAT5A and on STAT6 protein was greater than 10 µM throughout.
For `CC(C)(C)[C@H](NC(=O)c1cc2cc(C(F)(F)P(=O)(O)O)ccc2s1)C(=O)N1Cc2ccccc2CC1C(=O)Nc1ncc(-c2ccccc2)s1` (stereo partly drawn) [Compound 194, ((2-(((2S)-3,3-dimethyl-1-oxo-1-(3-((5-phenylthiazol-2-yl)carbamoyl)-3,4-dihydroisoquinolin-2(1H)-yl)butan-2-yl)carbamoyl)benzo[b]thiophen-5-yl)difluoromethyl)phosphonic acid], the Ki at STAT5A fell in the range of 0.1 to 1 µM; on STAT6 protein, 1 to 10 µM.
`CC(C)(C)[C@H](NC(=O)c1cc2cc(C(F)(F)P(=O)(O)O)ccc2s1)C(=O)N1Cc2ccccc2[C@H]1C(=O)N1CCO[C@H](c2ccccc2)C1` [Compound 195, ((2-(((S)-3,3-dimethyl-1-oxo-1-((S)-1-((R)-2-phenylmorpholine-4-carbonyl)isoindolin-2-yl)butan-2-yl)carbamoyl)benzo[b]thiophen-5-yl)difluoromethyl)phosphonic acid]: the results for the Ki on STAT5A and on STAT6 protein were 1 to 10 µM and less than 0.1 µM, respectively.
In the same order, the values of `CC(C)(C)[C@H](NC(=O)c1cc2cc(C(F)(F)P(=O)(O)O)ccc2s1)C(=O)N1Cc2ccccc2[C@H]1C(=O)N1CCC[C@H](c2ccccc2)C1` [Compound 196, ((2-(((S)-3,3-dimethyl-1-oxo-1-((S)-1-((R)-3-phenylpiperidine-1-carbonyl)isoindolin-2-yl)butan-2-yl)carbamoyl)benzo[b]thiophen-5-yl)difluoromethyl)phosphonic acid] are 1 to 10 µM and less than 0.1 µM.
For `CC(C)(C)[C@H](NC(=O)c1cc2cc(C(F)(F)P(=O)(O)O)ccc2s1)C(=O)N1Cc2ccccc2[C@H]1C(=O)N1CC[C@H](c2ccccc2)C1` [Compound 197, ((2-(((S)-3,3-dimethyl-1-oxo-1-((S)-1-((R)-3-phenylpyrrolidine-1-carbonyl)isoindolin-2-yl)butan-2-yl)carbamoyl)benzo[b]thiophen-5-yl)difluoromethyl)phosphonic acid], the Ki is greater than 10 µM on STAT5A and 1 to 10 µM on STAT6 protein.
In the same order, the values of `CC(C)(C)[C@H](NC(=O)c1cc2cc(C(F)(F)P(=O)(O)O)ccc2s1)C(=O)N1Cc2ccccc2[C@H]1C(=O)N1CC[C@@H](c2ccccc2)C1` [Compound 198, ((2-(((S)-3,3-dimethyl-1-oxo-1-((S)-1-((S)-3-phenylpyrrolidine-1-carbonyl)isoindolin-2-yl)butan-2-yl)carbamoyl)benzo[b]thiophen-5-yl)difluoromethyl)phosphonic acid] are 1 to 10 µM and 0.1 to 1 µM.
Taken in the same sequence, the figures for `CC(C)(C)[C@H](NC(=O)c1cc2cc(C(F)(F)P(=O)(O)O)ccc2s1)C(=O)N1Cc2ccccc2[C@H]1C(=O)N1Cc2ccccc2C1` [Compound 199, (difluoro(2-(((S)-1-((S)-1-(isoindoline-2-carbonyl)isoindolin-2-yl)-3,3-dimethyl-1-oxobutan-2-yl)carbamoyl)benzo[b]thiophen-5-yl)methyl)phosphonic acid] were greater than 10 µM and 1 to 10 µM.
Taken in the same sequence, the figures for `CC(C)(C)[C@H](NC(=O)c1cc2cc(C(F)(F)P(=O)(O)O)ccc2s1)C(=O)N1Cc2ccccc2[C@H]1C(=O)Nc1ncc(-c2ccccc2)s1` [Compound 200, ((2-(((S)-3,3-dimethyl-1-oxo-1-((S)-1-((5-phenylthiazol-2-yl)carbamoyl)isoindolin-2-yl)butan-2-yl)carbamoyl)benzo[b]thiophen-5-yl)difluoromethyl)phosphonic acid] were 0.1 to 1 µM and 1 to 10 µM.
On to `CC(C)(C)[C@H](NC(=O)c1cc2cc(C(F)(F)P(=O)(O)O)ccc2s1)C(=O)N1CCN(C(=O)OCc2ccccc2)C[C@H]1C(=O)Nc1ncc(-c2ccccc2)s1` [Compound 201, ((2-(((S)-1-((S)-4-((benzyloxy)carbonyl)-2-((5-phenylthiazol-2-yl)carbamoyl)piperazin-1-yl)-3,3-dimethyl-1-oxobutan-2-yl)carbamoyl)benzo[b]thiophen-5-yl)difluoromethyl)phosphonic acid], for which the Ki on STAT5A fell in the range of 0.1 to 1 µM; on STAT6 protein it was 1 to 10 µM.
In the same order, the values of `CC(C)(C)[C@H](NC(=O)c1cc2cc(C(F)(F)P(=O)(O)O)ccc2s1)C(=O)N1C[C@H](OCc2ccccc2)C[C@H]1C(=O)N1Cc2ccccc2C1` [Compound 202, ((2-(((S)-1-((2S,4R)-4-(benzyloxy)-2-(isoindoline-2-carbonyl)pyrrolidin-1-yl)-3,3-dimethyl-1-oxobutan-2-yl)carbamoyl)benzo[b]thiophen-5-yl)difluoromethyl)phosphonic acid] are 1 to 10 µM and 1 to 10 µM.
For `CC(C)(C)[C@H](NC(=O)c1cc2cc(C(F)(F)P(=O)(O)O)ccc2s1)C(=O)N1C[C@H](OCc2ccccc2)C[C@H]1C(=O)Nc1ncc(-c2ccccc2)s1` [Compound 203, ((2-(((S)-1-((2S,4R)-4-(benzyloxy)-2-((5-phenylthiazol-2-yl)carbamoyl)pyrrolidin-1-yl)-3,3-dimethyl-1-oxobutan-2-yl)carbamoyl)benzo[b]thiophen-5-yl)difluoromethyl)phosphonic acid], the Ki on STAT5A is 0.1 to 1 µM; on STAT6 protein, 1 to 10 µM.
As for `CCOC(=O)CO[C@H]1C[C@@H](C(=O)Nc2ncc(-c3ccccc3)s2)N(C(=O)[C@@H](NC(=O)c2cc3cc(C(F)(F)P(=O)(O)O)ccc3s2)C(C)(C)C)C1` [Compound 205, ((2-(((S)-1-((2S,4S)-4-(2-ethoxy-2-oxoethoxy)-2-((5-phenylthiazol-2-yl)carbamoyl)pyrrolidin-1-yl)-3,3-dimethyl-1-oxobutan-2-yl)carbamoyl)benzo[b]thiophen-5-yl)difluoromethyl)phosphonic acid], the Ki at STAT5A and on STAT6 protein was 1 to 10 µM throughout.

Source of the values: patent US20230295200A1 (REGENTS OF THE UNIVERSITY OF MICHIGAN, priority 2022, published 2023).
